From patent US20100069341A1, “TETRAHYDRO-PYRANOPYRAZOLE CANNABINOID MODULATORS” (priority 2005, published 2010) come the findings set out here.

One assay deals with T1, Cannabinoid CB1 Receptor (Homo sapiens, UniProt P21554).
T1 construct: expressed in transfected cells; semi-purified membrane pellet
Kind of assay: Binding assay, cannabinoid CB1 receptor ([3H]-CP-55,940 displacement, SK-N-MC cell membranes). The note with it: for inhibition at 0.2 µM: read-out: Cannabinoid CB1 Receptor Binding, percent inhibition. As for the experimental part:
(§1) Binding Assay for CB1 or CB2 Agonists or Inverse Agonists
(§2) The human CB1 and CB2 receptors were stably expressed in SK-N-MC cells transfected with pcDNA3 CB-1 (human) or pcDNA3 CB-2 (human). The cells were grown in T-180 cell culture flasks under standard cell culture conditions at 37° C. in a 5% CO2 atmosphere. The cells were harvested by trysinization and homogenized in a homogenization buffer (10 mM Tris, 0.2 mM MgCl2, 5 mM KCl, with protease inhibitors aprotinin, leupeptin, pepstatin A and bacitracin) and centrifuged (2000 g). The supernatant was then centrifuged in 2M sucrose (31,300 g) to produce a semi-purified membrane pellet. The pellet was resuspended in homogenization and store at −80° C.
On the day of the assay, the pellet was thawed on ice and diluted in assay buffer (50 mM Tris-HCl, 5 mM MgCl2, 2.5 mM EDTA, 0.5 mg/mL fatty acid free bovine serum albumin, pH 7.5). […] The plate was covered and incubated for 90 minutes at 30° C. The contents were then aspirated onto a Packard Unifilter GF/C filter bottom plate prewet with 0.5% polyethyleneimine. The wells of the polypropylene plate were rinsed and aspirated seven times with a 0.9% saline-0.5% Tween 20 solution. The Unifilter plate was dried, a scintillation cocktail was added to each well and the counts representing binding were quantitated in a TopCount scintillation counter.
For compounds tested, an IC50 binding value was obtained from percent inhibition studies in which various test concentrations were used. The binding value (in μM) was calculated by linear regression.

The next assay deals with T2, Cannabinoid CB2 Receptor (Homo sapiens, UniProt P34972).
T2 construct: expressed in transfected cells; semi-purified membrane pellet
In words: Binding assay, cannabinoid CB2 receptor ([3H]-CP-55,940 displacement, SK-N-MC cell membranes). The note with it: test concentration of 0.2 μM, human CB2 in SK-N-MC membranes; for inhibition at 0.2 µM: read-out: Cannabinoid CB2 Receptor Binding, percent inhibition. As for the experimental part: as §1, §2
On the day of the assay, the pellet was thawed on ice and diluted in assay buffer (50 mM Tris-HCl, 5 mM MgCl2, 2.5 mM EDTA, 0.5 mg/mL fatty acid free bovine serum albumin, pH 7.5). The diluted membrane was added with buffer, test compound or standard and the radioligand [H]^3+-CP-55,940 (0.2 nM) to the wells of a 96-well polypropylene plate. Non-specific binding was measured in wells containing 10 uM WIN 55,212. The plate was covered and incubated for 90 minutes at 30° C. The contents were then aspirated onto a Packard Unifilter GF/C filter bottom plate prewet with 0.5% polyethyleneimine. The wells of the polypropylene plate were rinsed and aspirated seven times with a 0.9% saline-0.5% Tween 20 solution. The Unifilter plate was dried, a scintillation cocktail was added to each well and the counts representing binding were quantitated in a TopCount scintillation counter.
For compounds tested, an IC50 binding value was obtained from percent inhibition studies in which various test concentrations were used. The binding value (in μM) was calculated by linear regression. For compounds without an IC50 binding value, the percent inhibition (in %) was obtained at a test concentration of 0.2 μM.

Where [1] appears, read: test concentration of 0.2 μM, human CB1 in SK-N-MC membranes.

Like-named read-outs stand apart in the source and are kept apart here.

T2 sequence (P34972 whole entry): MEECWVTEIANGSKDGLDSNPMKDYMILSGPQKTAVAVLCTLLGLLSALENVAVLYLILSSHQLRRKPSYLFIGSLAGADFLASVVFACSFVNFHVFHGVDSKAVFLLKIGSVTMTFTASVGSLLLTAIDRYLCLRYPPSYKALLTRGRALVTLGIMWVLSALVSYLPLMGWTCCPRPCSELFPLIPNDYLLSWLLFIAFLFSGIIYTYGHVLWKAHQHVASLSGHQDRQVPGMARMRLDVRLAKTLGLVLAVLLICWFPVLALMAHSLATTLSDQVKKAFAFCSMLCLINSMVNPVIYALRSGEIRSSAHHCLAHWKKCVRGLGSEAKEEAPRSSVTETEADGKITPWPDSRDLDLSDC
T1 sequence (P21554 whole entry): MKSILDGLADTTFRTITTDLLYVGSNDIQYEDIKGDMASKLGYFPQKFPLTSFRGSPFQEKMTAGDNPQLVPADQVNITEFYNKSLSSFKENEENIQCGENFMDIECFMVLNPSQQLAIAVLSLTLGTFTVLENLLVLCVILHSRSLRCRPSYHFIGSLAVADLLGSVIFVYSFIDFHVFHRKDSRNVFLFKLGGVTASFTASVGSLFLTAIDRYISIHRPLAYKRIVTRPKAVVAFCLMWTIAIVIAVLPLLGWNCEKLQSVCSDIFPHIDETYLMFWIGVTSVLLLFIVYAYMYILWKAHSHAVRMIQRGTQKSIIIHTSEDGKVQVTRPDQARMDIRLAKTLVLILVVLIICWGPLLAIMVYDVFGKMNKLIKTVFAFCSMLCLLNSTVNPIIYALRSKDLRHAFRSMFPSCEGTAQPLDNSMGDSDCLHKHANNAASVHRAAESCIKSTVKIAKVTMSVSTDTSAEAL

In the case of `CC1CCCC(C)N1NC(=O)c1nn(-c2ccc(Cl)cc2Cl)c2c1COC/C2=C\c1ccc(Cl)o1` (stereo not drawn) [Cpd 68, (7Z)-7-(5-chloro-furan-2-ylmethylene)-1-(2,4-dichloro-phenyl)-1,4,6,7-tetrahydro-pyrano[4,3-c]pyrazole-3-carboxylic acid (2,6-dimethyl-piperidin-1-yl)-amide], the inhibition at 0.2 µM is 38% at Cannabinoid CB1 Receptor (setting [1]) and 22% at Cannabinoid CB2 Receptor.
As for `O=C(NN1CCCC1)c1nn(-c2ccc(Cl)cc2Cl)c2c1COC/C2=C\c1ccc(F)cc1` [Cpd 9, (7Z)-1-(2,4-dichloro-phenyl)-7-(4-fluoro-benzylidene)-1,4,6,7-tetrahydro-pyrano[4,3-c]pyrazole-3-carboxylic acid pyrrolidin-1-ylamide], the inhibition at 0.2 µM at Cannabinoid CB1 Receptor (setting [1]) was determined as 58%; on Cannabinoid CB2 Receptor, 0%.
Turning to “azepan-1-yl-[1-(2,4-dichloro-phenyl)-7-(4-fluoro-benzyl)-1,4,6,7-tetrahydro-pyrano[4,3-c]pyrazol-3-yl]-methanone [Cpd 25]”, the “Cannabinoid CB1 Receptor Binding, percent inhibition” value on Cannabinoid CB1 Receptor (setting [1]) stood at 50%. Also, the “Cannabinoid CB2 Receptor Binding, percent inhibition” value on Cannabinoid CB2 Receptor was determined as 0%.
Turning to `O=C(c1nn(-c2ccc(Cl)cc2Cl)c2c1COC/C2=C\c1ccc(F)cc1)N1CCC[C@@H]1CO` [Cpd 20, (7Z)-[1-(2,4-dichloro-phenyl)-7-(4-fluoro-benzylidene)-1,4,6,7-tetrahydro-pyrano[4,3-c]pyrazol-3-yl]-[(2R)-2-hydroxymethyl-pyrrolidin-1-yl]-methanone], the inhibition at 0.2 µM is 27% at Cannabinoid CB1 Receptor (setting [1]) and 18% at Cannabinoid CB2 Receptor.
Turning to `O=C(c1nn(-c2ccc(Cl)cc2)c2c1COC/C2=C\c1ccc(F)cc1)N1CCC[C@H]1CO` [Cpd 19, (7Z)-[1-(4-chloro-phenyl)-7-(4-fluoro-benzylidene)-1,4,6,7-tetrahydro-pyrano[4,3-c]pyrazol-3-yl]-[(2S)-2-hydroxymethyl-pyrrolidin-1-yl]-methanone], the inhibition at 0.2 µM was determined as 51% at Cannabinoid CB1 Receptor (setting [1]) and 13% at Cannabinoid CB2 Receptor.
For `CN(C(=O)c1nn(-c2ccc(Cl)cc2)c2c1COC/C2=C\c1ccc(F)cc1)c1ccccc1` [Cpd 14, (7Z)-1-(4-chloro-phenyl)-7-(4-fluoro-benzylidene)-1,4,6,7-tetrahydro-pyrano[4,3-c]pyrazole-3-carboxylic acid methyl-phenyl-amide], the inhibition at 0.2 µM on Cannabinoid CB1 Receptor (setting [1]) is 49%; at Cannabinoid CB2 Receptor it was 7%.
For the compound `C[C@H](NC(=O)c1nn(-c2ccc(Cl)cc2Cl)c2c1COC/C2=C\c1ccc(Cl)o1)C1CCCCC1` [Cpd 63, (7Z)-7-(5-chloro-furan-2-ylmethylene)-1-(2,4-dichloro-phenyl)-1,4,6,7-tetrahydro-pyrano[4,3-c]pyrazole-3-carboxylic acid [(S)-1-cyclohexyl-ethyl]-amide], the inhibition at 0.2 µM on Cannabinoid CB1 Receptor stood at 25%; at Cannabinoid CB2 Receptor, 10%.
Consider `COC[C@H]1CCCN1NC(=O)c1nn(-c2ccc(Cl)cc2Cl)c2c1COC/C2=C\c1ccc(Cl)s1` [Cpd 74, (7Z)-7-(5-chloro-thiophen-2-ylmethylene)-1-(2,4-dichloro-phenyl)-1,4,6,7-tetrahydro-pyrano[4,3-c]pyrazole-3-carboxylic acid [(2R)-2-methoxymethyl-pyrrolidin-1-yl]-amide], for which the inhibition at 0.2 µM at Cannabinoid CB1 Receptor (setting [1]) was determined as 65%; on Cannabinoid CB2 Receptor, 12%.
Regarding `O=C(N[C@@H]1CCC[C@H]1O)c1nn(-c2ccc(Cl)cc2Cl)c2c1COC/C2=C\c1ccc(F)cc1` [Cpd 3, (7Z)-1-(2,4-dichloro-phenyl)-7-(4-fluoro-benzylidene)-1,4,6,7-tetrahydro-pyrano[4,3-c]pyrazole-3-carboxylic acid [(1R,2R)-2-hydroxy-cyclopentyl]-amide], the inhibition at 0.2 µM was 32% on Cannabinoid CB1 Receptor (setting [1]) and 0% at Cannabinoid CB2 Receptor.
Taken in the same sequence, the figures for `O=C(c1nn(-c2ccc(Cl)cc2Cl)c2c1COC/C2=C\c1ccc(F)cc1)N1CCCC1` [Cpd 10, (7Z)-[1-(2,4-dichloro-phenyl)-7-(4-fluoro-benzylidene)-1,4,6,7-tetrahydro-pyrano[4,3-c]pyrazol-3-yl]-pyrrolidin-1-yl-methanone] were 33% and 14%.
Consider `C[C@@H](NC(=O)c1nn(-c2ccc(Cl)cc2Cl)c2c1COC/C2=C\c1ccc(Cl)s1)c1ccccc1` [Cpd 49, (7Z)-7-(5-chloro-thiophen-2-ylmethylene)-1-(2,4-dichloro-phenyl)-1,4,6,7-tetrahydro-pyrano[4,3-c]pyrazole-3-carboxylic acid [(R)-1-phenyl-ethyl]-amide], for which the half-inhibitory concentration (IC50) at Cannabinoid CB1 Receptor came to 20 nM. Further, the inhibition at 0.2 µM at Cannabinoid CB1 Receptor (setting [1]) worked out at 84%; at Cannabinoid CB2 Receptor, 10%.
Turning to `CN1CCN(NC(=O)c2nn(-c3ccc(Cl)cc3Cl)c3c2COCC3Cc2ccc(F)cc2)CC1` (stereo not drawn) [Cpd 26, 1-(2,4-dichloro-phenyl)-7-(4-fluoro-benzyl)-1,4,6,7-tetrahydro-pyrano[4,3-c]pyrazole-3-carboxylic acid (4-methyl-piperazin-1-yl)-amide], the values for the inhibition at 0.2 µM at Cannabinoid CB1 Receptor (setting [1]) and on Cannabinoid CB2 Receptor were 8% and 13%, respectively.
On to `C[C@@H](NC(=O)c1nn(-c2ccc(Cl)cc2)c2c1COC/C2=C\c1ccc(F)cc1)C1CCCCC1` [Cpd 13, (7Z)-1-(4-chloro-phenyl)-7-(4-fluoro-benzylidene)-1,4,6,7-tetrahydro-pyrano[4,3-c]pyrazole-3-carboxylic acid [(1R)-1-cyclohexyl-ethyl]-amide], for which, on Cannabinoid CB1 Receptor, the 50% inhibitory concentration (IC50) came to 20 nM and the inhibition at 0.2 µM is 84%. The inhibition at 0.2 µM at Cannabinoid CB2 Receptor amounted to 25%.
Regarding `CC(NC(=O)c1nn(-c2ccc(Cl)cc2Cl)c2c1COC/C2=C\c1ccc(Cl)o1)c1ccccn1` (stereo not drawn) [Cpd 67, (7Z)-7-(5-chloro-furan-2-ylmethylene)-1-(2,4-dichloro-phenyl)-1,4,6,7-tetrahydro-pyrano[4,3-c]pyrazole-3-carboxylic acid (1-pyridin-2-yl-ethyl)-amide], the inhibition at 0.2 µM was determined as 40% on Cannabinoid CB1 Receptor (setting [1]) and 7% at Cannabinoid CB2 Receptor.
For `C[C@H](NC(=O)c1nn(-c2ccc(Cl)cc2Cl)c2c1COC/C2=C\c1ccsc1)C1CCCCC1` [Cpd 41, (7Z)-1-(2,4-dichloro-phenyl)-7-thiophen-3-ylmethylene-1,4,6,7-tetrahydro-pyrano[4,3-c]pyrazole-3-carboxylic acid [(S)-1-cyclohexyl-ethyl]-amide], the inhibition at 0.2 µM on Cannabinoid CB1 Receptor was determined as 56%; on Cannabinoid CB2 Receptor it was 21%.
As for `COC[C@H]1CCCN1NC(=O)c1nn(-c2ccc(Cl)cc2Cl)c2c1COC/C2=C\c1ccc(F)cc1` [Cpd 75, (7Z)-1-(2,4-dichloro-phenyl)-7-(4-fluoro-benzylidene)-1,4,6,7-tetrahydro-pyrano[4,3-c]pyrazole-3-carboxylic acid [(2R)-2-methoxymethyl-pyrroldin-1-yl]-amide], the inhibition at 0.2 µM on Cannabinoid CB1 Receptor (setting [1]) was 68%; at Cannabinoid CB2 Receptor, 15%.
`O=C(NN1CCCCC1)c1nn(-c2ccc(Cl)cc2Cl)c2c1COC/C2=C\c1ccc(Cl)o1` [Cpd 64, (7Z)-7-(5-chloro-furan-2-ylmethylene)-1-(2,4-dichloro-phenyl)-1,4,6,7-tetrahydro-pyrano[4,3-c]pyrazole-3-carboxylic acid piperidin-1-ylamide]: the results for the inhibition at 0.2 µM on Cannabinoid CB1 Receptor (setting [1]) and at Cannabinoid CB2 Receptor were 62% and 12%, respectively.

One may read the inhibition as the change of the read-out against control, counted positive when it falls. By IC50 is commonly meant the point on the concentration scale where inhibition reaches its midpoint. The low end stands for greater potency, the high end for weaker potency.
